# Test results taken from US11167015B2, “Arginine and its use as a T cell modulator” (INSTITUTE FOR RESEARCH IN BIOMEDICINE, priority 2016, dated 2021).
# Key:
# arginase = arginase inhibition; cited from earlier work
# activated CD4+ T cells [1] = experiment: IL-2 withdrawal assay and assessment of cell viability, CD4+ T cells; type: cell-based, human; conditions: for survival of activated CD4+ T cells in the absence of exogenous cytokines: metabolites 3 mM, except for spermidine 0.1 mM, 5 days after IL-2 withdrawal
# Experimental: Naïve CD4 T cells were activated with plate-bound CD3 and CD28 antibodies. 48 h after activation IL-2 was added to culture media (500 U ml^−1). After a further 3 days of culturing, cells were washed, counted and equal cell numbers were plated in medium devoid of IL-2. The withdrawal medium was no longer supplemented with e.g. L-arginine. Cell viability was assessed with annexin V.
# human naïve CD4+ T cells [2] = experiment: T cell proliferation (CellTrace Violet dilution); type: cell-based
# Experimental: (§1) FIG. 10. […] (A) Kinetics of T cell proliferation. Human naïve CD4+ T cells were labeled with CellTraceViolet (CTV) and activated in Ctrl medium or in L-Arg medium or in medium supplemented with 3 mM D-arginine or 3 mM L-arginine together with 3 mM L-lysine. Cell divisions were monitored at 48 h and 72 h by flow cytometry. (B) CTV-labeled CD4+ T cells were activated in normal medium or L-Arg medium and the dilution of CTV was measured over time by flow cytometry. n=5 from two donors. (C) 3H-L-arginine uptake by 3 day-activated CD4+ T cells during a 15 minutes pulse. Where indicated, 3 mM L-arginine, D-arginine or L-lysine was added to the culture medium as a competitive uptake inhibitor. n=7 for control, n=9 for L-Arg, n=5 for D-Arg, and n=9 for L-Lys. Bars represent the s.e.m.
# activated CD4+ T cells [3] = experiment: 3H-arginine uptake assay and calculation of proteome incorporation; type: cell-based, human; conditions: 3 mM added as competitive uptake inhibitor, 15 minutes pulse, 3 day-activated CD4+ T cells
# Experimental: as §1
# human naïve CD4+ T cells [4] = experiment: kinetic metabolome analysis of activated T cells; type: cell-based; conditions: added to the culture medium at the same concentration as L-arginine (3 mM)
# Experimental: (B) Differential analysis of the glycolytic pathway between naïve CD4^+ T cells cultured in L-Arg medium or Ctrl medium, 96 h after activation. Log 2 fold changes of proteins and metabolites are color-coded. […] 3-P-Glycerate and 2-P-Glycerate could not be distinguished as they have the same mass. (C) 72 h-activated T cells were plated in fresh medium and glucose consumption was determined enzymatically after 24 h; n=9 from three donors. (D) Seahorse experiment performed with activated (96 h) T cells from one donor. Oligomycin was injected after 56 min, FCCP after 96 min, and antimycin (to inhibit the respiratory chain) after 136 min. Data are representative of 5 independent experiments with different donors.
# (A) Human naïve CD4^+ T cells were activated in normal medium or in L-Arg medium. Nitric oxide formation was measured using DAF-FM diacetate at different time points.
# Naïve CD4^+ T cells were either analyzed directly after isolation or at different time points after activation with CD3 and CD28 antibodies. Cells were washed twice in 96-well plates with 75 mM ammonium carbonate at pH 7.4 and snap frozen in liquid nitrogen. Metabolites were extracted three times with hot (>70° C.) 70% ethanol. Extracts were analyzed by flow injection—time of flight mass spectrometry on an Agilent 6550 QTOF instrument operated in the negative mode, as described previously (Fuhrer et al., 2011). Typically 5,000-12,000 ions with distinct mass-to-charge (m/z) ratio could be identified in each batch of samples. Ions were putatively annotated by matching their measured mass to that of the compounds listed by the KEGG database for Homo sapiens, allowing a tolerance of 0.001 Da. Only deprotonated ions (without adducts) were considered in the analysis. In case of multiple matching, such as in the case of structural isomers, all candidates were retained.
# [5] = tested on: C56BL/6 wild type (Wt) or Arg2−/− T cells; experiment: In vitro T cell survival with wild type or Arg2-/- mouse T cells; type: cell-based; conditions: norNOHA 500 μM, 2 days after IL-2 withdrawal
# 96 h-activated T cells = experiment: 13C-L-arginine metabolic tracing (metabolic flux experiments); type: cell-based, human; conditions: addition of arginase inhibitor, 13C6-L-arginine pulse
# Experimental: FIG. 2. L-arginine is rapidly metabolized upon activation (A) Intracellular abundance of L-arginine in non-activated (non-act) and activated naïve CD4^+ T cells (CD3+CD28 antibodies). Boxplot, n=30 from three donors, each in a different color; a.u. arbitrary units. (B) Kinetics of ^3H-L-arginine uptake during a 15 min pulse. Box plot, n=5 from three donors. (C) Uptake, proteome incorporation and intracellular abundance of the indicated amino acids. Barplot (left): 5×10^4 cells were activated for 4 days and consumption of amino acids from medium was analyzed. Essential amino acids are in grey; n=4 from four donors, error bars represent s.e.m. […] Heat map (right): Intracellular amino acid abundance relative to naive T cells over time as determined by MS; n=30 from three donors. […] Black dots are metabolites that were not detected by MS. Only enzymes that were detected by MS are shown. […] 96 h-activated T cells were pulsed with ^13C6-L-arginine and the metabolic fate was analyzed by LC-MS/MS at different time points. AFL, Apparent fractional labeling; n=4 from two donors. ^13C Citrulline was not detected.
# Naïve CD4^+ T cells were activated and 4 days, later extensively washed and pulsed with L-arginine free RPMI medium containing 1 mM [U-^13C]-L-Arginine hydrochloride (Sigma). […] Metabolites were extracted and analyzed by HILIC LC-MS/MS. […]
smiles,measurement,setting,value
"N[C@@H](CSCCB(O)O)C(=O)O [BEC, S-(2-boronoethyl)-L-cysteine]",intracellular L-arginine levels,arginase,increase intracellular L-arginine levels
N=C(N)NCCC[C@@H](N)C(=O)O [D-arginine],survival of activated CD4+ T cells in the absence of exogenous cytokines,activated CD4+ T cells [1],decreased T cell survival significantly
same,onset of proliferation,human naïve CD4+ T cells [2]; 3 mM in medium,not affected
same,L-arginine uptake,activated CD4+ T cells [3],inhibit L-arginine uptake
NC(=O)C1CCCc2c1[nH]c1ccc(Cl)cc21 (centres unmarked) [Ex-527],L-arginine-mediated increase in survival in the presence of the Sirtuin-1 inhibitor,activated CD4+ T cells [1]; Ex-527 5 μM added at activation,comparable to controls
"Cl.N=C(N)NCCC[C@H](N)C(=O)O [L-arginine-HCl, L-arginine hydrochloride]",survival of activated CD4+ T cells in the absence of exogenous cytokines,activated CD4+ T cells [1],enhanced T cell survival to a similar extent
"NC(=O)NCCC[C@H](N)C(=O)O [L-citrulline, reference compound]",effects on metabolism,human naïve CD4+ T cells [4],only had minor effects
same,survival of activated CD4+ T cells in the absence of exogenous cytokines,activated CD4+ T cells [1],had no effect
NCCCC[C@H](N)C(=O)O [L-lysine],survival of activated CD4+ T cells in the absence of exogenous cytokines,activated CD4+ T cells [1],decreased T cell survival significantly
same,onset of proliferation,human naïve CD4+ T cells [2]; 3 mM L-lysine added to L-arginine-supplemented cultures,not affected
same,L-arginine uptake,activated CD4+ T cells [3],inhibit L-arginine uptake
N=C(N)NCCCCN [agmatine],survival of activated CD4+ T cells in the absence of exogenous cytokines,activated CD4+ T cells [1],decreased T cell survival
CN(CC(=O)O)C(=N)N [creatine],survival of activated CD4+ T cells in the absence of exogenous cytokines,activated CD4+ T cells [1],had no effect
[N]=O [nitric oxide],T cell survival (role of nitric oxide),activated CD4+ T cells [1]; nitric oxide synthase inhibitors DiMeArg or L-NAME at 1 mM,had no effect
"N=C(NO)NCC[C@H](N)C(=O)O [norNOHA, N^ω-Hydroxy-nor-L-arginine]",survival of Arg2−/− T cells after IL-2 withdrawal,[5],did not affect survival
same,survival of wild type T cells after IL-2 withdrawal,[5],increasing the survival
same,conversion of L-arginine into agmatine,96 h-activated T cells,did not affect
same,"conversion of L-arginine into ornithine, putrescine, spermidine and proline",96 h-activated T cells,markedly reduced
same,intracellular L-arginine levels,arginase,increase intracellular L-arginine levels
"O=C(O)[C@@H]1CCCN1 [proline, L-proline]",survival of activated CD4+ T cells in the absence of exogenous cytokines,activated CD4+ T cells [1],had no effect
NCCCCN [putrescine],survival of activated CD4+ T cells in the absence of exogenous cytokines,activated CD4+ T cells [1],decreased T cell survival
NCCCCNCCCN [spermidine],survival of activated CD4+ T cells in the absence of exogenous cytokines,activated CD4+ T cells [1],decreased T cell survival
NC(N)=O [urea],survival of activated CD4+ T cells in the absence of exogenous cytokines,activated CD4+ T cells [1],had no effect
